Results taken from US5045302A, “Ligands and cationic complexes thereof with technetium-99m” (priority 1988, dated 1991).
Read-outs that look alike come from different tables or passages of the source.

What was measured:
[1] = guinea pig, in vivo
[2] = rat, in vivo
[3] = Plasma binding study (PD10 column), human plasma; type: in vitro ADME
Method: 1 ml sample of guinea pig or human plasma or saline (control) were added to 2 ml Eppendorf tubes. To these were then added 100 ul aliquots of the ^99m Tc preparation being studied. Mixing was performed by inverting the tubes several times. A 50 ul sample was then taken for counting and the remainder of the sample (1050 ul) was quantitatively transferred to the top of the PD10 column. The sample was allowed to enter the column matrix and then washed in with 1.5 mls saline. Initially a 2.5 ml aliquot was collected for counting, (dead volume) subsequently 0.5 ml aliquots were collected until a total volume of 16 mls had been used to elute the column. […] Collected fractions were counted in a γ well counter and a graph plotted of percentage recovery was calculated from initial preloading sample and cumulative counts.

[4] = Rat biodistribution of Tc-99m complexes

Compound: CCOCC[P+]1(CCOCC)CC[P+](CCOCC)(CCOCC)[Tc-3]12([Cl])([Cl])[P+](CCOCC)(CCOCC)CC[P+]2(CCOCC)CCOCC
- blood and liver clearance [1]: good
- heart uptake [1]: good heart uptake
- wash-out from heart [1]: washes out of the respective hearts
- Blood ([1]; 2 min): 3.50 % Injected dose/organ
- Heart ([1]; 2 min): 1.89 % Injected dose/organ
- Heart/Blood Counts/Gram Ratio ([1]; 2 min): 12.72
- Heart/Liver Counts/Gram Ratio ([1]; 2 min): 2.13
- Heart/Muscle Counts/Gram Ratio ([1]; 2 min): 4.48
- Kidney + Urine ([1]; 2 min): 6.98 % Injected dose/organ
- Liver ([1]; 2 min): 13.74 % Injected dose/organ
- Liver + GI ([1]; 2 min): 18.72 % Injected dose/organ
- Lung ([1]; 2 min): 3.11 % Injected dose/organ
- Muscle ([1]; 2 min): 61.65 % Injected dose/organ
- Blood ([1]; 60 min): 0.58 % Injected dose/organ
- Heart ([1]; 60 min): 0.13 % Injected dose/organ
- Heart/Blood Counts/Gram Ratio ([1]; 60 min): 5.35
- Heart/Liver Counts/Gram Ratio ([1]; 60 min): 0.72
- Heart/Muscle Counts/Gram Ratio ([1]; 60 min): 1.13
- Kidney + Urine ([1]; 60 min): 3.20 % Injected dose/organ
- Liver ([1]; 60 min): 3.16 % Injected dose/organ
- Liver + GI ([1]; 60 min): 62.38 % Injected dose/organ
- Lung ([1]; 60 min): 0.30 % Injected dose/organ
- Muscle ([1]; 60 min): 15.16 % Injected dose/organ
- blood and liver clearance [2]: good
- heart uptake [2]: good heart uptake
- wash-out from heart [2]: washes out of the respective hearts
- Blood ([2]; 2 min): 5.24 % Injected dose/organ
- Heart ([2]; 2 min): 1.51 % Injected dose/organ
- Heart/Blood Counts/Gram Ratio ([2]; 2 min): 3.90
- Heart/Liver Counts/Gram Ratio ([2]; 2 min): 0.64
- Heart/Muscle Counts/Gram Ratio ([2]; 2 min): 4.68
- Kidney + Urine ([2]; 2 min): 4.48 % Injected dose/organ
- Liver ([2]; 2 min): 28.87 % Injected dose/organ
- Liver + GI ([2]; 2 min): 41.13 % Injected dose/organ
- Lung ([2]; 2 min): 1.45 % Injected dose/organ
- Muscle ([2]; 2 min): 34.92 % Injected dose/organ
- Blood ([2]; 60 min): 0.71 % Injected dose/organ
- Heart ([2]; 60 min): 0.16 % Injected dose/organ
- Heart/Blood Counts/Gram Ratio ([2]; 60 min): 3.09
- Heart/Liver Counts/Gram Ratio ([2]; 60 min): 0.46
- Heart/Muscle Counts/Gram Ratio ([2]; 60 min): 1.41
- Kidney + Urine ([2]; 60 min): 4.95 % Injected dose/organ
- Liver ([2]; 60 min): 4.78 % Injected dose/organ
- Liver + GI ([2]; 60 min): 61.34 % Injected dose/organ
- Lung ([2]; 60 min): 0.47 % Injected dose/organ
- Muscle ([2]; 60 min): 11.68 % Injected dose/organ
- percent recovery of Tc99m activity ([3]; human, plasma): 93.8%
- binding to / interaction with human plasma ([3]; in words): possible slight interaction

Compound: C1COC(CP(CCP(CC2CCCO2)CC2CCCO2)CC2CCCO2)C1 (centres unmarked) [Compound 24]
- Blood ([4]; 2 min p.i.): 3.92 % Injected dose/organ
- Heart ([4]; 2 min p.i.): 1.82 % Injected dose/organ
- Heart/Blood Counts/Gram Ratio ([4]; 2 min p.i.): 6.98
- Heart/Liver Counts/Gram Ratio ([4]; 2 min p.i.): 1.74
- Liver ([4]; 2 min p.i.): 16.4 % Injected dose/organ
- Blood ([4]; 60 min p.i.): 0.55 % Injected dose/organ
- Heart ([4]; 60 min p.i.): 1.42 % Injected dose/organ
- Heart/Blood Counts/Gram Ratio ([4]; 60 min p.i.): 39.7
- Heart/Liver Counts/Gram Ratio ([4]; 60 min p.i.): 2.62
- Liver ([4]; 60 min p.i.): 8.56 % Injected dose/organ

Compound: C1CC(CP(CCP(CC2CCOCC2)CC2CCOCC2)CC2CCOCC2)CCO1 [Compound 25]
- Blood ([4]; 2 min p.i.): 18.10 % Injected dose/organ
- Heart ([4]; 2 min p.i.): 0.40 % Injected dose/organ
- Heart/Blood Counts/Gram Ratio ([4]; 2 min p.i.): 0.34
- Heart/Liver Counts/Gram Ratio ([4]; 2 min p.i.): 0.94
- Liver ([4]; 2 min p.i.): 5.74 % Injected dose/organ
- Blood ([4]; 60 min p.i.): 1.51 % Injected dose/organ
- Heart ([4]; 60 min p.i.): 0.04 % Injected dose/organ
- Heart/Blood Counts/Gram Ratio ([4]; 60 min p.i.): 0.41
- Heart/Liver Counts/Gram Ratio ([4]; 60 min p.i.): 0.34
- Liver ([4]; 60 min p.i.): 1.60 % Injected dose/organ

Compound: CCOCCP(CCOC)CCP(CCOC)CCOCC (centres unmarked) [Compound 28]
- Blood ([4]; 2 min p.i.): 9.0 % Injected dose/organ
- Heart ([4]; 2 min p.i.): 0.82 % Injected dose/organ
- Heart/Blood Counts/Gram Ratio ([4]; 2 min p.i.): 1.62
- Heart/Liver Counts/Gram Ratio ([4]; 2 min p.i.): 1.28
- Liver ([4]; 2 min p.i.): 11.0 % Injected dose/organ
- Blood ([4]; 60 min p.i.): 0.73 % Injected dose/organ
- Heart ([4]; 60 min p.i.): 0.69 % Injected dose/organ
- Heart/Blood Counts/Gram Ratio ([4]; 60 min p.i.): 15.5
- Heart/Liver Counts/Gram Ratio ([4]; 60 min p.i.): 3.93
- Liver ([4]; 60 min p.i.): 2.94 % Injected dose/organ

Compound: CCCOCCP(CCOC)CCP(CCOC)CCOCCC (centres unmarked) [Compound 29]
- Blood ([4]; 2 min p.i.): 8.75 % Injected dose/organ
- Heart ([4]; 2 min p.i.): 1.23 % Injected dose/organ
- Heart/Blood Counts/Gram Ratio ([4]; 2 min p.i.): 2.26
- Heart/Liver Counts/Gram Ratio ([4]; 2 min p.i.): 0.95
- Liver ([4]; 2 min p.i.): 18.6 % Injected dose/organ
- Blood ([4]; 60 min p.i.): 1.64 % Injected dose/organ
- Heart ([4]; 60 min p.i.): 1.15 % Injected dose/organ
- Heart/Blood Counts/Gram Ratio ([4]; 60 min p.i.): 11.5
- Heart/Liver Counts/Gram Ratio ([4]; 60 min p.i.): 1.40
- Liver ([4]; 60 min p.i.): 11.5 % Injected dose/organ

Compound: CCOCCCP(CCOC)CCP(CCCOCC)CCOC (centres unmarked) [Compound 30]
- Blood ([4]; 2 min p.i.): 9.52 % Injected dose/organ
- Heart ([4]; 2 min p.i.): 0.73 % Injected dose/organ
- Heart/Blood Counts/Gram Ratio ([4]; 2 min p.i.): 1.14
- Heart/Liver Counts/Gram Ratio ([4]; 2 min p.i.): 1.28
- Liver ([4]; 2 min p.i.): 7.69 % Injected dose/organ
- Blood ([4]; 60 min p.i.): 0.34 % Injected dose/organ
- Heart ([4]; 60 min p.i.): 0.70 % Injected dose/organ
- Heart/Blood Counts/Gram Ratio ([4]; 60 min p.i.): 27.4
- Heart/Liver Counts/Gram Ratio ([4]; 60 min p.i.): 4.24
- Liver ([4]; 60 min p.i.): 1.89 % Injected dose/organ
